The supplement of paper PMC10307832

Key:
Experiment in all cases: relative viability (nuclei count vs DMSO), 5 days (fraction); higher = more cells survive
XMD13-2 + Luminespib = compound: C1CC1C(=O)NC2=NNC3=C2C=CC(=C3)C4=CC(=CC=C4)C(=O)NC5CC5 [XMD13-2] + CCNC(=O)c1noc(-c2cc(C(C)C)c(O)cc2O)c1-c1ccc(CN2CCOCC2)cc1 [Luminespib] (partner 0.01 µM)
In short: (§1)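 Five library-drug doses in √10 steps were combined with a fixed anchor-drug dose, or a single drug was given alone, by pin tool to lung cancer cell lines in 1536-well plates the day after seeding. Nuclei were stained and counted after 5 days. Relative viability is the nuclei count in treated wells over that in vehicle wells, taken as the median of duplicate plates.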

ALW-II-49-7 + Foretinib = compound: Cc1ccc(C(=O)Nc2cccc(C(F)(F)F)c2)cc1Nc1cncc(C(N)=O)c1 [ALW-II-49-7] + COc1cc2c(Oc3ccc(NC(=O)C4(C(=O)Nc5ccc(F)cc5)CC4)cc3F)ccnc2cc1OCCCN1CCOCC1 [Foretinib] (partner 0.25 µM)
In short: as §1

XMD13-2 + AZD7762 = compound: C1CC1C(=O)NC2=NNC3=C2C=CC(=C3)C4=CC(=CC=C4)C(=O)NC5CC5 [XMD13-2] + NC(=O)Nc1cc(-c2cccc(F)c2)sc1C(=O)N[C@H]1CCCNC1 [AZD7762] (partner 0.2 µM)
In short: as §1

[1] = compound: Cc1ccc(C(=O)Nc2cccc(C(F)(F)F)c2)cc1Nc1cncc(C(N)=O)c1 [ALW-II-49-7] + CC(=O)c1c(C)c2cnc(Nc3ccc(N4CCNCC4)cn3)nc2n(C2CCCC2)c1=O [Palbociclib] (partner 0.5 µM)
In short: as §1

Cell Line | relative viability (XMD13-2 + Luminespib; first compound 0.05 µM) | relative viability (XMD13-2 + Luminespib; first compound 0.1581 µM) | relative viability (XMD13-2 + Luminespib; first compound 0.5 µM) | relative viability (XMD13-2 + Luminespib; first compound 1.581 µM) | relative viability (XMD13-2 + Luminespib; first compound 5 µM) | relative viability (ALW-II-49-7 + Foretinib; first compound 0.08 µM) | relative viability (ALW-II-49-7 + Foretinib; first compound 0.253 µM) | relative viability (ALW-II-49-7 + Foretinib; first compound 0.8 µM) | relative viability (ALW-II-49-7 + Foretinib; first compound 2.53 µM) | relative viability (ALW-II-49-7 + Foretinib; first compound 8 µM) | relative viability (XMD13-2 + AZD7762; first compound 0.05 µM) | relative viability (XMD13-2 + AZD7762; first compound 0.1581 µM) | relative viability (XMD13-2 + AZD7762; first compound 0.5 µM) | relative viability (XMD13-2 + AZD7762; first compound 1.581 µM) | relative viability (XMD13-2 + AZD7762; first compound 5 µM) | relative viability ([1]; first compound 0.08 µM) | relative viability ([1]; first compound 0.253 µM) | relative viability ([1]; first compound 0.8 µM) | relative viability ([1]; first compound 2.53 µM) | relative viability ([1]; first compound 8 µM)
NCI-H1623 | 0.594 | 0.514 | 0.517 | 0.456 | 0.502 | 0.889 | 0.809 | 0.87 | 0.649 | 0.859 | – | – | – | – | – | – | – | – | – | –
HCC-827 | 0.809 | 0.424 | 0.725 | 0.576 | 0.661 | 1.02 | 1.13 | 1.07 | 0.954 | 1.02 | 0.199 | 0.22 | 0.207 | 0.202 | 0.224 | 0.44 | 0.465 | 0.466 | 0.367 | 0.391
NCI-H322M | 0.874 | 0.834 | 0.804 | 0.89 | 1.23 | 0.825 | 0.996 | 0.908 | 0.771 | 0.962 | 0.461 | 0.602 | 0.543 | – | 0.653 | 0.439 | 0.453 | 0.486 | 0.534 | 0.505
ChaGo-K-1 | 0.585 | 0.582 | 0.603 | 0.617 | 0.476 | 0.971 | 0.968 | 0.931 | 0.905 | 0.91 | 0.956 | 0.97 | 0.892 | 0.924 | 0.881 | 0.949 | 0.98 | 0.954 | 0.887 | 0.98
BEN | 0.53 | 0.437 | 0.384 | 0.246 | 0.289 | 0.829 | 0.756 | 0.768 | 0.752 | 0.692 | 0.799 | 0.777 | 0.638 | 0.594 | 0.729 | 0.468 | 0.452 | 0.482 | 0.439 | 0.481
NCI-H2347 | 0.405 | 0.342 | 0.486 | 0.54 | 0.791 | 1.1 | 1.04 | 0.906 | 0.227 | 0.844 | 0.971 | 0.759 | 0.888 | 0.735 | 0.822 | 0.528 | 0.452 | 0.43 | 0.432 | 0.478
LOU-NH91 | 0.355 | 0.318 | 0.374 | 0.347 | 0.318 | 0.912 | 0.945 | 0.921 | 0.879 | 0.944 | 0.938 | 0.767 | 0.78 | 0.725 | 0.793 | 0.484 | 0.526 | 0.517 | – | 0.564
NCI-H2228 | 0.144 | 0.218 | 0.166 | 0.129 | 0.178 | 1.07 | 0.651 | 0.736 | 0.848 | 0.795 | – | – | – | – | – | 0.602 | 0.416 | 0.645 | 0.812 | 0.596
NCI-H2342 | 0.721 | 0.712 | 0.642 | 0.767 | 0.806 | 1.19 | 0.986 | 1.07 | 1.03 | 0.981 | 0.494 | 0.566 | 0.516 | 0.455 | 0.598 | 0.496 | 0.541 | 0.515 | 0.499 | 0.488
HCC-366 | – | – | – | – | – | 1 | 1.02 | 0.941 | 1 | 1.08 | 0.325 | 0.388 | 0.308 | 0.427 | 0.355 | 0.354 | 0.454 | 0.388 | 0.299 | 0.326
NCI-H2405 | 0.853 | 0.634 | 0.578 | 0.641 | 0.633 | 1.03 | 1.06 | 0.998 | 0.847 | 0.895 | 0.849 | 0.712 | 0.728 | – | 0.8 | 0.507 | 0.591 | 0.488 | 0.532 | 0.468
Calu-6 | – | – | – | – | – | 0.914 | 0.832 | 0.912 | 0.832 | 0.805 | – | – | – | – | – | – | – | – | – | –
201T | 1.03 | 1.03 | 1.11 | 1.01 | 1.12 | – | 1.24 | 1.01 | 0.447 | 1.13 | 0.634 | 0.707 | 0.584 | 0.616 | 0.61 | 0.362 | 0.361 | 0.376 | 0.329 | 0.347
CAL-12T | 0.373 | 0.832 | 0.933 | 0.286 | 0.75 | 1.11 | 1.14 | 1.19 | 1.07 | 0.843 | 0.625 | 0.708 | 0.583 | 0.563 | 0.933 | 0.381 | 0.423 | 0.46 | 0.411 | 0.365
HCC-44 | 1.28 | 1.12 | 1.17 | 1.06 | 1.03 | – | – | – | – | – | 0.944 | 0.98 | 0.969 | 1.05 | 1.02 | 0.961 | 1.02 | 0.972 | 0.871 | 0.864
NCI-H358 | 0.487 | 0.202 | 0.418 | 0.196 | 0.321 | 0.691 | 0.658 | 0.575 | 0.809 | 0.689 | 0.633 | 0.537 | 0.515 | 0.442 | 0.414 | 0.128 | 0.13 | 0.141 | 0.133 | 0.117
SW 900 | 0.192 | 0.174 | 0.2 | 0.178 | 0.19 | 0.943 | 0.866 | 0.96 | 0.913 | 0.831 | 0.741 | 0.587 | 0.679 | 0.467 | 0.835 | 0.475 | 0.577 | – | 0.573 | 0.658
NCI-H2087 | 0.164 | 0.159 | 0.217 | 0.198 | 0.152 | 1.22 | 1.12 | 1.09 | 1.08 | 1.04 | 1.31 | 1.39 | 1.62 | 1.3 | 1.49 | 0.227 | 0.261 | 0.239 | 0.255 | 0.22
